In test [1] the test system is MDA-MB-453. In words: drug sensitivity score (DSS), single agent (DSS (weighted AUC score)); higher = more sensitive (stronger viability decrease); extreme values may be limits of the assay. Particulars: BLU9931 0 nM; 72 h. An outline of the steps:
(§1)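 Compounds from the FIMM Oncology set were predispensed in singlicate at five 10-fold dilutions (10,000-fold range) on 384-well plates. Each well then received 2000 MDA-MB-453 cells in medium with or without an FGFR4 inhibitor (100 nM final) and was kept at 37 °C, 5% CO2. Cellular ATP was read with CellTiterGlo 2.0 after 72 h and normalised per plate to percent viability from control wells. The drug sensitivity score is a weighted area under a four-parameter logistic fit.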

Test [2] has as its system MDA-MB-453. In words: drug sensitivity score (DSS), in combination with BLU9931 (DSS (weighted AUC score)); higher = more sensitive (stronger viability decrease); extreme values may be limits of the assay. Particulars: BLU9931 100 nM; 72 h. An outline of the steps:
as §1

Molecules are shown by their SMILES.

On to `CNC(=O)c1ccc(N2C(=S)N(c3ccc(C#N)c(C(F)(F)F)c3)C(=O)C2(C)C)cc1F` [Enzalutamide], for which the drug sensitivity score in test [1] worked out at 1.3; in test [2], 0.
Regarding `CC(C)n1cnc2c(NCCc3ccc(O)cc3)nc(-c3csc4ccccc34)nc21` [StemRegenin 1], the values for the drug sensitivity score in test [1] and in test [2] were 0.3 and 0.4, respectively.
For `CC(=O)Nc1cccc(-n2c(=O)n(C3CC3)c(=O)c3c(Nc4ccc(I)cc4F)n(C)c(=O)c(C)c32)c1` [Trametinib], in that order: 5.7 and 2.7.
For `CC1(C)C(C(=O)Nc2ccc(S(=O)(=O)c3ccc(NC(=O)C4C(C)(C)C4(C)C)cc3)cc2)C1(C)C` [BRD7116], in that order: 4.5 and 3.9.
In the case of `CCN(c1cc(-c2ccc(CN3CCOCC3)cc2)cc(C(=O)NCc2c(C)cc(C)[nH]c2=O)c1C)C1CCOCC1` [Tazemetostat], the results for the drug sensitivity score in test [1] and in test [2] were 2.1 and 0, respectively.
For `C#Cc1cccc(Nc2ncnc3cc(OCCOC)c(OCCOC)cc23)c1` [Erlotinib], in that order: 2.7 and 4.7.
Taken in the same sequence, the figures for `C=CCN(/C=C1/C(=O)O[C@H](COC)[C@@]2(C)C1=C(O)C(=O)C1=C2[C@H](OC(C)=O)C[C@]2(C)C(=O)CC[C@@H]12)CC=C` [Sonolisib] were 0 and 0.
Taken in the same sequence, the figures for `CCCCCCCCc1ccc(CCC(N)(CO)CO)cc1` [Fingolimod] were 8.7 and 7.7.
For the compound `Cc1c(F)cc(C(=O)NC2CC2)cc1-c1ccc(C(=O)NCC(C)(C)C)cn1` [Losmapimod], the drug sensitivity score turned out to be 0.4 in test [1] and 1.4 in test [2].
Taken in the same sequence, the figures for `NC(=O)c1cccc2cn(-c3ccc([C@@H]4CCCNC4)cc3)nc12` [Niraparib] were 2.3 and 1.3.
For `CCc1cnn2c(NCc3ccc[n+]([O-])c3)cc(N3CCCC[C@H]3CCO)nc12` [Dinaciclib], in that order: 22.1 and 21.5.
Taken in the same sequence, the figures for `COc1cc2c(Oc3ccc4[nH]c(C)cc4c3F)ncnc2cc1OCCCN1CCCC1` [Cediranib] were 0 and 0.
Take `CC(C)(C)c1cc(NC(=O)Nc2ccc(-c3cn4c(n3)sc3cc(OCCN5CCOCC5)ccc34)cc2)no1` [Quizartinib]: the drug sensitivity score in test [1] is 1; in test [2] it was 0.4.
Taken in the same sequence, the figures for `C[C@@H](Oc1ccc2[nH]nc(/C=C/c3cnn(CCO)c3)c2c1)c1c(Cl)cncc1Cl` were 9 and 1.8.
With `CN1CCN(C2CCN(C(=O)Nc3cc(Oc4ccc(NC(=O)C5(C(=O)Nc6ccc(F)cc6)CC5)c(F)c4)ccn3)CC2)CC1` [Golvatinib], the drug sensitivity score in test [1] came to 0.3; in test [2], 0.
For `COc1cccc2c1C(=O)c1c(O)c3c(c(O)c1C2=O)C[C@@](O)(/C(CO)=N/NC(=O)CCCCCN1C(=O)C=CC1=O)C[C@@H]3O[C@H]1C[C@H](N)[C@H](O)[C@H](C)O1` [Aldoxorubicin], in that order: 5.8 and 5.4.
`Nc1cccc2c1CN(C1CCC(=O)NC1=O)C2=O` (centres undefined) [Lenalidomide]: the drug sensitivity score in test [1] and in test [2] was 0 each time.
Take `c1cc(CN2CCCNCCNCCCNCC2)ccc1CN1CCCNCCNCCCNCC1` [Plerixafor]: the drug sensitivity score in test [1] and in test [2] was 0 in each case.
On to `Cc1cnc(NC(=O)Nc2cc(Br)c(C)cc2OC[C@@H]2CNCCO2)cn1` [Rabusertib], for which the drug sensitivity score in test [1] was found to be 1.2; in test [2], 0.9.
For `COc1cccc2c1C(=O)c1c(O)c3c(c(O)c1C2=O)C[C@@](O)(C(=O)CO)C[C@@H]3O[C@H]1C[C@H](N)[C@@H](O)[C@H](C)O1` [Epirubicin], in that order: 7.3 and 5.9.
Taken in the same sequence, the figures for `Cn1cc(C2=C(c3cn(C4CCN(Cc5ccccn5)CC4)c4ccccc34)C(=O)NC2=O)c2ccccc21` [Enzastaurin] were 0 and 0.
Taken in the same sequence, the figures for `CCN(CC)CCOc1ccc(C(=C(Cl)c2ccccc2)c2ccccc2)cc1` [Clomifene] were 5.8 and 4.
As to `CC[C@H](Nc1ncnc2[nH]cnc12)c1nc2cccc(F)c2c(=O)n1-c1ccccc1` [Idelalisib], the drug sensitivity score in test [1] came out at 1.7; in test [2], 2.
For `Cc1cc(Nc2nc(N[C@@H](C)c3ncc(F)cn3)ncc2Cl)[nH]n1` [AZD1480], in that order: 0.3 and 0.
For the compound `C=CC(=O)Nc1cccc(Nc2nc(Nc3ccc(N4CCN(C(C)=O)CC4)cc3OC)ncc2C(F)(F)F)c1` [Rociletinib], the drug sensitivity score in test [1] turned out to be 7.8; in test [2], 7.9.
Taken in the same sequence, the figures for `Cc1nc(Nc2ncc(C(=O)Nc3c(C)cccc3Cl)s2)cc(N2CCN(CCO)CC2)n1` [Dasatinib] were 0 and 0.
As for `CN1CC[C@@H](NC(=O)Nc2ccc(C#N)cc2)C[C@@H]1c1nc2ccccc2[nH]1` [Glasdegib], the drug sensitivity score in test [1] and in test [2] was 0 in each case.
As for `CC[C@H](NC(=O)[C@H](C)NC)C(=O)N1C[C@@H](O)C[C@H]1Cc1c(-c2[nH]c3cc(F)ccc3c2C[C@@H]2C[C@H](O)CN2C(=O)[C@H](CC)NC(=O)[C@H](C)NC)[nH]c2cc(F)ccc12` [Birinapant], the drug sensitivity score in test [1] is 10.1; in test [2], 15.8.
Taken in the same sequence, the figures for `c1cn2cc(-c3ccc4cn[nH]c4c3)nc(Nc3ccc(N4CCOCC4)cc3)c2n1` [Entospletinib] were 0 and 0.
Taken in the same sequence, the figures for `O=C1CCc2c(Oc3ccc4c(c3)[C@@H]3[C@H](O4)[C@H]3c3nc4cc(C(F)(F)F)ccc4[nH]3)ccnc2N1` [BGB-283] were 3.6 and 1.3.
For `CO[C@H]1C(=O)[C@]2(C)[C@@H](OC)C[C@H]3OC[C@@]3(OC(C)=O)[C@H]2[C@H](OC(=O)c2ccccc2)[C@]2(O)C[C@H](OC(=O)[C@H](O)[C@@H](NC(=O)OC(C)(C)C)c3ccccc3)C(C)=C1C2(C)C` [Cabazitaxel], in that order: 14.6 and 8.8.
Regarding `CCCS(=O)(=O)Nc1ccc(F)c(C(=O)c2c[nH]c3ncc(-c4ccc(Cl)cc4)cc23)c1F` [Vemurafenib], the drug sensitivity score in test [1] and in test [2] was 0 throughout.
As for `Nc1ncn([C@H]2C[C@H](O)[C@@H](CO)O2)c(=O)n1` [Decitabine], the drug sensitivity score in test [1] and in test [2] was 0 each time.
In the case of `CC(C)Oc1ccc(C(=O)N[C@H](CNC(=O)CN(C)C)Cc2ccc(-c3cn4cccc([C@H](C)O)c4n3)cc2)cc1Cl`, the drug sensitivity score in test [1] came to 14.3; in test [2] it was 8.8.
Turning to `N#CC[C@H](C1CCCC1)n1cc(-c2ncnc3[nH]ccc23)cn1` [Ruxolitinib], the drug sensitivity score in test [1] was 1.2; in test [2] it was 0.
For `CNCc1ccc(-c2[nH]c3cc(F)cc4c3c2CCNC4=O)cc1` [Rucaparib], in that order: 0.6 and 0.
For `O=C(O)c1ccc2c(c1)nc(Nc1cccc(Cl)c1)c1ccncc12` [Silmitasertib], in that order: 8.1 and 7.6.
For `C[C@@H]1CN(C(=O)c2ccc(NC(=O)c3cc(O[C@H](C)c4c(Cl)ccc(F)c4Cl)c(N)nn3)cc2)C[C@H](C)N1` [Ensartinib], in that order: 0 and 0.
`CC(=O)N(O)CCCCCNC(=O)CCC(=O)N(O)CCCCCNC(=O)CCC(=O)N(O)CCCCCN` [Deferoxamine]: the drug sensitivity score in test [1] came to 2.3; in test [2] it was 4.3.
`CCc1cc2c(cc1N1CCC(N3CCOCC3)CC1)C(C)(C)c1[nH]c3cc(C#N)ccc3c1C2=O` [Alectinib]: the drug sensitivity score in test [1] worked out at 0.9; in test [2], 0.
Turning to `Cc1cccc(CC(=O)N2CCc3c2ccc(-c2cn(C)c4ncnc(N)c24)c3F)n1`, the drug sensitivity score in test [1] came to 2.2; in test [2], 0.
Taken in the same sequence, the figures for `Cn1nnc2c(C(N)=O)ncn2c1=O` [Temozolomide] were 0 and 0.
With `Cc1nn(C)c(COc2ccc(N3CCN(S(=O)(=O)N(C)C)CC3)cc2)c1-c1cccc2c(CCCOc3cccc4ccccc34)c(C(=O)O)n(CCN3CCOCC3)c12`, the drug sensitivity score in test [1] and in test [2] was 5.8 each time.
For `O=C(Nc1ccncc1)C(=O)c1cn(Cc2ccc(Cl)cc2)c2ccccc12` [Indibulin], the drug sensitivity score in test [1] was 9.1; in test [2], 5.3.
For `NC(=O)Nc1cc(-c2cccc(F)c2)sc1C(=O)N[C@H]1CCCNC1` [AZD7762], in that order: 5 and 4.
For `CO[C@@]12[C@H](COC(N)=O)C3=C(C(=O)C(C)=C(N)C3=O)N1C[C@@H]1N[C@@H]12` [Mitomycin C], in that order: 0 and 0.
For `CCNC(=O)CCC/C=C\C[C@@H]1[C@@H](/C=C/[C@@H](O)CCc2ccccc2)[C@H](O)C[C@@H]1O` [Bimatoprost], in that order: 0 and 0.

Source of the values: the supplement of paper PMC7224384.
